Laboratory results: patent publication US20250059205A1, “Heterocyclic Compounds and Methods of Use” (AMGEN INC., priority 2021, published 2025)

How the values were obtained:
[1] = target: His-tagged KRAS G12D protein (Homo sapiens, UniProt P01116, G12D); assay: KRAS G12D TR-FRET Assay; assay type: binding
[2] = system: Phosphorylation of ERK1/2 in AsPC-1 cells; assay: Phospho-ERK1/2 MSD Assay (AsPC-1 cells); assay type: cell-based; details: Homo sapiens, ASPC1, 2 h, 2 hours treatment, read-out: p-ERK (AsPC-1 cells) IC50
How it was run: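 Read-out: MSD electrochemiluminescent detection of phosphorylated ERK1/2 in whole-cell lysates, fitted to a 4-parameter logistic curve for IC50. Prior to lysis, AsPC-1 cells (25,000 per well) received a 2 h compound dose-response at 37 °C.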

[3] = system: Phosphorylation of ERK1/2 in A-427 cells; assay: Phospho-ERK1/2 MSD Assay (A-427 cells); assay type: cell-based; details: Homo sapiens, A-427, 2 h, 2 h treatment, read-out: p-ERK (A427 cells) IC50
How it was run: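 ERK1/2 phosphorylation measured by Meso Scale whole-cell lysate assay after A-427 cells were exposed to a titration of compound for 2 h at 37 °C.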

[4] = target: GDP-bound KRAS protein (aa 1-169), containing both G12D and C118A amino acid substitutions (Homo sapiens, UniProt P01116, C118A/G12D); assay: KRAS G12D Coupled Nucleotide Exchange Assay; assay type: biochemical; details: 2 h compound pre-incubation
Description: Following compound pre-incubation, purified SOS protein (aa 564-1049) and GTP (Roche 10106399001) were added to the assay wells and incubated for an additional 30 min. […] The assay plates were then read on a PerkinElmer EnVision Multilabel Reader, using AlphaScreen® technology, and data were analyzed using a 4-parameter logistic model to calculate IC50 values.

Sequence of GDP-bound KRAS protein (aa 1-169), containing both G12D and C118A amino acid substitutions (P01116 1-169 isoform P01116-2 G12D/C118A): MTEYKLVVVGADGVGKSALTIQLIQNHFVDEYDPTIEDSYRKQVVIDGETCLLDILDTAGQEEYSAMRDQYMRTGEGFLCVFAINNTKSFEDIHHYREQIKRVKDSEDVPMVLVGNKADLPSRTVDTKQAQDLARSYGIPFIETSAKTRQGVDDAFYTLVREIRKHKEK
Sequence of His-tagged KRAS G12D protein (P01116 1-188 isoform P01116-2 G12D): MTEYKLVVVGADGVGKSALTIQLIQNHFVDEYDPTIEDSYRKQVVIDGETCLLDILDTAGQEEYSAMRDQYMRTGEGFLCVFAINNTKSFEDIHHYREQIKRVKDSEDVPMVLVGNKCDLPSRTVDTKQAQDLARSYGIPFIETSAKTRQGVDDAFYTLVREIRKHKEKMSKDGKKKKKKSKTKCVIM

Structure (SMILES)	IC50 [1] [nM]	IC50 [2] [nM]	IC50 [3] [nM]	Avg 2 h Coupled Exchange IC50 [4] [nM]
CCc1c(F)ccc2cc(O)cc(-c3c(O)cc4c(N5C[C@H]6CC[C@@H](C5)N6)nc(OC[C@@]56CCCN5C[C@H](F)C6)nc4c3F)c12 [Example 199, 4-((1R,5S)-3,8-Diazabicyclo[3.2.1]octan-3-yl)-7-(8-ethyl-7-fluoro-3-hydroxynaphthalen-1-yl)-8-fluoro-2-(((2R,7aS)-2-fluorotetrahydro-1H-pyrrolizin-7a(5H)-yl)methoxy)quinazolin-6-ol]	3	70	9	4
Oc1cc(-c2c(Cl)cc3c(N4C[C@H]5CC[C@@H](C4)N5)nc(OC[C@@]45CCCN4C[C@H](F)C5)nc3c2F)c2c(F)c(F)ccc2c1 [Example 81, 4-(4-((1R,5S)-3,8-diazabicyclo[3.2. 1]octan-3-yl)-6-chloro-8-fluoro-2-(((2R,7aS)-2-fluorotetrahydro-1H-pyrrolizin-7a(5H)-yl)methoxy)quinazolin-7-yl)-5,6-difluoronaphthalen-2-ol]	3	99	30	4
Oc1cc(-c2ccc3c(N4C[C@H]5CC[C@@H](C4)N5)nc(OC[C@@]45CCCN4C[C@H](F)C5)nc3c2F)c2c(F)cccc2c1 [Example 141, 4-(4-((1R,5S)-3,8-diazabicyclo[3.2.1]octan-3-yl)-8-fluoro-2-(((2R,7aS)-2-fluorotetrahydro-1H-pyrrolizin-7a(5H)-yl)methoxy)quinazolin-7-yl)-5-fluoronaphthalen-2-ol]	2	93	10	1
Oc1cc(Cl)c(C2CC2)c(-c2ccc3c(N4C[C@H]5CC[C@@H](C4)N5)nc(OC[C@@]45CCCN4C[C@H](F)C5)nc3c2F)c1 [Example 145, 3-(4-((1R,5S)-3,8-diazabicyclo[3.2.1]octan-3-yl)-8-fluoro-2-(((2R,7aS)-2-fluorotetrahydro-1H-pyrrolizin-7a(5H)-yl)methoxy)quinazolin-7-yl)-5-chloro-4-cyclopropylphenol]	2	39	11	3
CCc1c(F)ccc2cc(O)cc(-c3c(F)cc4c(N5C[C@H]6CC[C@@H](C5)N6)nc(OC[C@@H]5CCC(=O)N5)nc4c3F)c12 [Example 126, (5S)-5-(((4-((1R,5S)-3,8-diazabicyclo[3.2.1]octan-3-yl)-7-(8-ethyl-7-fluoro-3-hydroxynaphthalen-1-yl)-6,8-difluoroquinazolin-2-yl)oxy)methyl) pyrrolidin-2-one]	6	1220	388	2
Oc1cc(-c2c(F)cc3c(N4C[C@H]5CC[C@@H](C4)N5)nc(OC[C@@]45CCCN4C[C@H](F)C5)nc3c2F)c2c(F)c(F)ccc2c1 [Example 84, 4-(4-((1R,5S)-3,8-diazabicyclo[3.2. 1]octan-3-yl)-6,8-difluoro-2-(((2R,7aS)-2-fluorotetrahydro-1H-pyrrolizin-7a(5H)-yl)methoxy)quinazolin-7-yl)-5,6-difluoronaphthalen-2-ol]	4	22	5	4
Cc1c(-c2cc(O)cc3cccc(Cl)c23)ccc2c(N3[C@@H]4CC[C@H]3CNC4)nc(OC[C@@]34CCCN3C[C@H](F)C4)nc12 [Example 98, 4-(4-((1R,5S)-3,8-diazabicyclo[3.2. 1]octan-8-yl)-2-(((2R,7aS)-2-fluorotetrahydro-1H-pyrrolizin-7a(5H)-yl)methoxy)-8-methylquinazolin-7-yl)-5-chloronaphthalen-2-ol]	13	1050	587	13
CCc1c(F)ccc2cc(O)cc(-c3c(N)cc4c(N5C[C@H]6CC[C@@H](C5)N6)nc(OC[C@@]56CCCN5C[C@H](F)C6)nc4c3F)c12 [Example 202, 4-(6-Amino-4-((1R,5S)-3,8-diazabicyclo[3.2.1]octan-3-yl)-8-fluoro-2-(((2R,7aS)-2-fluorotetrahydro-1H-pyrrolizin-7a(5H)-yl)methoxy)quinazolin-7-yl)-5-ethyl-6-fluoronaphthalen-2-ol]	4	175	9	4
Oc1cc(-c2cc3nc(OC[C@@]45CCCN4C[C@H](F)C5)nc(N4[C@@H]5CC[C@H]4CNC5)c3cc2F)c2ccccc2c1 [Example 53, 4-(4-((1R,5S)-3,8-diazabicyclo[3.2. 1]octan-8-yl)-6-fluoro-2-(((2R,7aS)-2-fluorotetrahydro-1H-pyrrolizin-7a(5H)-yl)methoxy)quinazolin-7-yl)naphthalen-2-ol]	16	919	608	3
Fc1c(-c2cccc(Cl)c2C(F)(F)F)ccc2c(N3C[C@H]4CC[C@@H](C3)N4)nc(OC[C@@]34CCCN3C[C@H](F)C4)nc12 [Example 156, 4-((1R,5S)-3,8-diazabicyclo[3.2.1]octan-3-yl)-7-(3-chloro-2-(trifluoromethyl)phenyl)-8-fluoro-2-(((2R,7aS)-2-fluorotetrahydro-1H-pyrrolizin-7a(5H)-yl)methoxy) quinazoline]	7	881	1180	3
Oc1cc(-c2ccc3c(N4[C@@H]5CC[C@H]4CNC5)nc(OC[C@]45CCCN4C[C@H](F)C5)nc3c2F)c2ccccc2c1 [Example 3, 4-(4-((1R,5S)-3,8-diazabicyclo[3.2. 1]octan-8-yl)-8-fluoro-2-(((2R,7aR)-2-fluorotetrahydro-1H-pyrrolizin-7a(5H)-yl)methoxy)quinazolin-7-yl)naphthalen-2-ol]	10	812	650	5
CCc1c(F)ccc2cc(O)cc(-c3ccc4c(N5[C@@H]6CC[C@H]5CNC6)nc(OC[C@@]56CCCN5C[C@H](F)C6)nc4c3C)c12 [Example 161, 4-(4-((1R,5S)-3,8-diazabicyclo[3.2.1]octan-8-yl)-2-(((2R,7aS)-2-fluorotetrahydro-1H-pyrrolizin-7a(5H)-yl)methoxy)-8-methylquinazolin-7-yl)-5-ethyl-6-fluoronaphthalen-2-ol]	75	9750	10000	79
CCc1c(F)ccc2cc(O)cc(-c3c(F)cc4c(N5C[C@H]6CC[C@@H](C5)N6)nc(OC[C@@]56CCCN5C[C@H](F)C6)nc4c3F)c12 [Example 88, 4-(4-((1R,5S)-3,8-diazabicyclo[3.2. 1]octan-3-yl)-6,8-difluoro-2-(((2R,7aS)-2-fluorotetrahydro-1H-pyrrolizin-7a(5H)-yl)methoxy)quinazolin-7-yl)-5-ethyl-6-fluoronaphthalen-2-ol]	4	9	3	4
Cc1ccc2cnn(C)c2c1-c1c(Cl)cc2c(N3C[C@H]4CC[C@@H](C3)N4)nc(OC[C@@]34CCCN3C[C@H](F)C4)nc2c1F [Example 76, 4-((1R,5S)-3,8-diazabicyclo[3.2. 1]octan-3-yl)-6-chloro-7-(1,6-dimethyl-1H-indazol-7-yl)-8-fluoro-2-(((2R,7aS)-2-fluorotetrahydro-1H-pyrrolizin-7a(5H)-yl)methoxy) quinazoline]	10	674	191	8
Fc1c(-c2cccc3cccc(Cl)c23)ccc2c(N3C[C@H]4CC[C@@H](C3)N4)nc(OC[C@@]34CCCN3C[C@H](F)C4)nc12 [Example 55, 4-((1R,5S)-3,8-diazabicyclo[3.2. 1]octan-3-yl)-7-(8-chloronaphthalen-1-yl)-8-fluoro-2-(((2R,7aS)-2-fluorotetrahydro-1H-pyrrolizin-7a(5H)-yl)methoxy) quinazoline]	8	1660	1150	7
Cc1c(Cl)cc2cn[nH]c2c1-c1ccc2c(N3C[C@H]4CC[C@@H](C3)N4)nc(OC[C@@]34CCCN3C[C@H](F)C4)nc2c1F [Example 165, 4-((1R,5S)-3,8-diazabicyclo[3.2.1]octan-3-yl)-7-(5-chloro-6-methyl-1H-indazol-7-yl)-8-fluoro-2-(((2R,7aS)-2-fluorotetrahydro-1H-pyrrolizin-7a(5H)-yl)methoxy) quinazoline]	27	3280	4430	11
C#Cc1cccc2cc(O)cc(-c3ccc4c(N5C[C@H]6CC[C@@H](C5)N6)nc(OC[C@@]56CCCN5C[C@H](F)C6)nc4c3F)c12 [Example 185, 4-(4-((1R,5S)-3,8-diazabicyclo[3.2.1]octan-3-yl)-8-fluoro-2-(((2R,7aS)-2-fluorotetrahydro-1H-pyrrolizin-7a(5H)-yl)methoxy)quinazolin-7-yl)-5-ethynylnaphthalen-2-ol]	1	16	1	1
